Results taken from publication PMC6412019, “Discovery of NV-5138, the first selective Brain mTORC1 activator” (Scientific Reports, 2019).
Several values for one entry are separate records, joined by “and”; a condition that tells them apart may be missing. Equal entries are not always repeated.

How the values were obtained:
[1] = cited from earlier work
Sestrin2 = molecular target: T1, Sestrin2 (Homo sapiens, UniProt P58004); experiment: Isothermal titration calorimetry (ITC) on Sestrin2; format: binding; set-up: Full-length, codon-optimized human Sestrin2 was cloned into a pMAL6H -C5XT bacterial expression vector; His6-MBP (TEV-cleavable) (N, cleaved yes); made in house; host or cells: Escherichia coli LOBSTR (DE3); settings: for Kd: estimated, Sestrin2 pre-exchanged with methionine
T1 sequence (P58004 1-480): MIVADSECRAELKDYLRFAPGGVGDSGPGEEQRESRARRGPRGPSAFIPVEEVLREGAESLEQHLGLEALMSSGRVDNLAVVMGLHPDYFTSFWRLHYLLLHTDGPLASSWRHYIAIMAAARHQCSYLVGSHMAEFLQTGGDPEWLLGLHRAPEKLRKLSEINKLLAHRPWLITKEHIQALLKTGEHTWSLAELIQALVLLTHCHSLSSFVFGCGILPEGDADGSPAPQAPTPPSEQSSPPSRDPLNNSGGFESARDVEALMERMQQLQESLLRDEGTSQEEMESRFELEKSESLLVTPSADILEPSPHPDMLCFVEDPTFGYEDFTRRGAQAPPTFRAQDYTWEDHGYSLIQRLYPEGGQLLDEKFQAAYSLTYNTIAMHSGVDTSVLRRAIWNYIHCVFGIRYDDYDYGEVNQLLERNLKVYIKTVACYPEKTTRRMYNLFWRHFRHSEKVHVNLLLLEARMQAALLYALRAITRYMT
Method: Details of NV-5138 synthesis and protein preparation for ITC can be found in Supplementary Information.
For this exchange procedure ion exchange chromatography was used using the following buffers:
Buffer-A: HEPES 20mM pH 7.4, βME 5mM, Buffer-B: HEPES 20mM pH 7.4, βME 5mM, Methionine 5mM, Buffer-C: HEPES 20mM pH 7.4, βME 5mM, NaCl 1M. Sestrin2 (6 mg) was diluted to 5ml with buffer-A, and loaded on a MonoQ HR 5/50 column equilibrated in buffer-A. The column was washed with 2-3 column volume (CV) of buffer-A followed by 130 ml of buffer-B. The protein was then eluted in steps of 300 mM, 500 mM, and 1 M NaCl in buffer-C. The protein eluted in the 300 mM NaCl fractions and was concentrated to 7.6 mg/ml.

[2] = tested on: panel of 107 adverse drug effect targets; experiment: Eurofins/Cerep off-target selectivity panel; settings: up to 300 µM; threshold >50% binding/response; incl. AMPA, kainate and NMDA receptor isoforms
Method: While mTORC1 activation by NV-5138 appears dependent upon an intact Sestrins/GATOR2 pathway and not upon protein incorporation or transamination by BCAT, NV-5138 was tested for off-target activity in the Eurofins/Cerep panel of over 100 potential targets. The selectivity panel included AMPA, kainate and NMDA receptor isoforms (Supplementary Table 2a–c). […] As observed in the Eurofins/Cerep panel, there was no effect of NV-5138 at 300 µM final concentration (data not shown).
NV-5138 was tested in duplicate at a concentration of 300 µM for potential interaction with a panel of 107 adverse drug effect targets including 21 transporters, receptors, ion channels and enzymes expressed in the CNS (Eurofins Pharma Discovery Services). The threshold to exclude a significant interaction was set as a binding/response of >50%.

[3] = molecular target: T2, Sestrin2/GATOR2 interaction (Homo sapiens, UniProt P58004); experiment: Sestrin2/GATOR2 interaction in intact flag-WDR24 HEK-293T cells; format: cell-based; settings: leucine-starved 50 min, compound 10 min
T2 construct: expressed in transfected cells; host or cells: HEK-293T stably expressing Flag-WDR24; Sestrin2 and the other GATOR2 subunits endogenous
T2 sequence (P58004 1-480): T1 sequence (P58004 1-480)
Method: Expression of flag-WDR24 allows for immunoprecipitation of the Sestrin2/GATOR2 complex from amino acid-starved cells with an anti-flag antibody. […] Finally, to determine whether Sestrins and the GATOR pathway are required for NV-5138 activity, HEK-293T cells null for all three Sestrin isoforms or the GATOR1 component Nprl3 were obtained.
All cell lines were cultured in DMEM supplemented with 10% FBS and maintained at 37 °C and 5% CO2. HEK-293T cells stably expressing Flag-WDR24 was generated as previously described. […] Details of reagent used for cell culture can be found in Supplementary Information.
Cell lysates were prepared as previously described. Lysates were cleared by centrifugation at 13,200 rpm at 4 °C for 8 min. For anti-FLAG IPs, the FLAG-M2 affinity gel was added to approximately 2 mg of lysates and incubated with rotation for 3 h at 4 °C. Following IP, the beads were washed one time with Triton wash buffer containing 500 mM NaCl. […] After compound incubation, IPs were collected by centrifugation. Immunoprecipitated proteins were denatured and, resolved by SDS-PAGE. Membranes were imaged using the LI-COR imaging system. Reagents and antibodies used are listed in Supplementary Information.

[4] = tested on: Synapsin1, GluR1 and PSD95; experiment: Synaptic proteins in rat prefrontal cortex synaptoneurosomes (immunoblot); format: in vivo; settings: 24 h after single 160 mg/kg PO
Method: We investigated the activation of mTORC1 in the brain further by determining the time course of mTORC1 activation following a single administration of NV-5138. […] The decrease in mTORC1 signaling in the NV-5138 treated group 24 h following administration while significant was not consistently observed. […] It should be noted that while the activation of mTORC1 in the prefrontal cortex correlated with compound exposure, the increased expression of synaptic proteins was observed well after compound levels have dropped and mTORC1 activity was back to baseline/vehicle levels.
After compound administration, animals were sacrificed by decapitation using a guillotine, immediately Specific regions of the brain were quickly microdissected, tissues collected, and flash frozen in liquid nitrogen. Peripheral tissues and all brain were homogenized using MP homogenizer in Lysis Buffer (Cell lysis buffer: 1% Triton X-100, 50 mM HEPES pH 7.4, 100 mM NaCl, 2 mM EDTA, 10 mM Beta-glycerophosphate, 10 mM Sodium pyrophosphate, and 1 protease inhibitor) at 4 °C. Synaptic proteins and mTORC1 analyses in each brain region were conducted on crude synaptoneurosome preparations as previously described. Equal amounts of total protein from each sample were denatured and, resolved by SDS-PAGE. Membranes were imaged using the LI-COR imaging system. […]

molar stoichiometry (ITC) (Sestrin2)	Kd (Sestrin2)	Structure (SMILES)	cerebrospinal fluid (CSF) levels as fraction of plasma concentrations [1]	off-target activity in selectivity panel [2]	disruption of GATOR2-bound Sestrin2 in intact cells [3]	synaptic proteins Synapsin1, GluR1 and PSD95 versus vehicle [4]
1	1.6 µM and 1.55 µM	CC(C)C[C@H](N)C(=O)O [Leucine, L-leucine, reference compound]	5–10%			
	1.5 µM and 1.49 µM	CC(C)(C[C@H](N)C(=O)O)C(F)F [NV-5138, (S)-2-amino-5,5-difluoro-4,4-dimethylpentanoic acid]		no activity against any target	resulted in disruption of GATOR2-bound Sestrin2	significant increase
